Results on one compound are retold here after publication PMC4014619, “Slc26a7 Chloride Channel Activity and Localization in Mouse Reissner’s Membrane Epithelium” (PLoS ONE, 2014).

For the experiment, the target named is T1, Slc26a7 (Mus musculus, UniProt Q8R2Z3).
T1 construct: native full-length channel in Reissner's membrane epithelial cells (basolateral membrane); Slc26a7 knockout mice as control
T1 sequence (Q8R2Z3 1-656): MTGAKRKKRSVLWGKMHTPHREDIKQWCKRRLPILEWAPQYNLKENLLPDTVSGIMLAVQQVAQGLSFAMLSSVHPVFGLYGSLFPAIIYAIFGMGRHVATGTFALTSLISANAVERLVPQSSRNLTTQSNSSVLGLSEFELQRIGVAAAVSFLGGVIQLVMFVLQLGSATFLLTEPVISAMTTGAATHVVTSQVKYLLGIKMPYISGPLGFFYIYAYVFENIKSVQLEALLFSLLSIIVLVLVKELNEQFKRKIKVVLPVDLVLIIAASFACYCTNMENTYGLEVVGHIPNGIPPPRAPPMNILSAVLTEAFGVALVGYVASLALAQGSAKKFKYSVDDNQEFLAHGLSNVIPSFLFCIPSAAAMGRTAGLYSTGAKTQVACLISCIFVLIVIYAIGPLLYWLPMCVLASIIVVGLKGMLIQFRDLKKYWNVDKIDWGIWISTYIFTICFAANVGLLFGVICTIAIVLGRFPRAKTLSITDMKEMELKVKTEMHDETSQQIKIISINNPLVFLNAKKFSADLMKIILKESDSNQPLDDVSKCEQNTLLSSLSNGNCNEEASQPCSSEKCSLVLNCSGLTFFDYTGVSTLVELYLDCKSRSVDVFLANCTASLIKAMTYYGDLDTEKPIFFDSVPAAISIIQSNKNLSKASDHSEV
Nature of the experiment: whole-cell patch clamp, wild-type versus Slc26a7 knockout native epithelial cells. The class given is cell-based. The conditions noted are these: NMDG-Cl pipette, NO3-rich versus Cl-rich bath, +80 mV, pH 7.3, 37 °C; native cells with other anion channels present. Background: The patch-clamp technique gives a direct electrical read-out from membranes.

`O=[N+]([O-])O` [NO3 ^−]: the “whole-cell patch clamp, wild-type versus Slc26a7 knockout native epithelial cell” value is “elevated NO3 ^− current in wild-type cells being mediated by the Slc26a7 Cl^− channel”.
